Experimental data as given in publication PMC12658114, “Pharmacologic inhibition of PCBP2 biomolecular condensates relieves Alzheimer’s disease” (Nature Communications, 2025).

Assays:
Assay in all cases: biotin probe pull-down on streptavidin beads, Western blot
Type in all cases: biochemical
Conditions in all cases: lysate of transfected SH-SY5Y cells; labelled compound
[1] = target: T1, (Homo sapiens, UniProt Q8N201, R1404L)
T1 construct: gene INTS1; full-length cDNA (synthesized) in pcDNA3.1(+), C-terminal 3xFLAG, transiently expressed in SH-SY5Y cells, cell lysate

[2] = target: T2, flag-tagged wild type INTS1 (INTS1-WT-flag) (Homo sapiens, UniProt Q8N201)
T2 construct: full-length cDNA (synthesized) in pcDNA3.1(+), C-terminal 3xFLAG, transiently expressed in SH-SY5Y cells, cell lysate

[3] = target: T3, (Homo sapiens, UniProt Q8N201, R1404A)
T3 construct: gene INTS1; full-length cDNA (synthesized) in pcDNA3.1(+), C-terminal 3xFLAG, transiently expressed in SH-SY5Y cells, cell lysate

flag-tagged INTS1 = target: T4, flag-tagged INTS1 (Homo sapiens, UniProt Q8N201, R1404K)
T4 construct: full-length cDNA (synthesized) in pcDNA3.1(+), C-terminal 3xFLAG, transiently expressed in SH-SY5Y cells, cell lysate
T4 sequence (Q8N201 whole entry R1404K): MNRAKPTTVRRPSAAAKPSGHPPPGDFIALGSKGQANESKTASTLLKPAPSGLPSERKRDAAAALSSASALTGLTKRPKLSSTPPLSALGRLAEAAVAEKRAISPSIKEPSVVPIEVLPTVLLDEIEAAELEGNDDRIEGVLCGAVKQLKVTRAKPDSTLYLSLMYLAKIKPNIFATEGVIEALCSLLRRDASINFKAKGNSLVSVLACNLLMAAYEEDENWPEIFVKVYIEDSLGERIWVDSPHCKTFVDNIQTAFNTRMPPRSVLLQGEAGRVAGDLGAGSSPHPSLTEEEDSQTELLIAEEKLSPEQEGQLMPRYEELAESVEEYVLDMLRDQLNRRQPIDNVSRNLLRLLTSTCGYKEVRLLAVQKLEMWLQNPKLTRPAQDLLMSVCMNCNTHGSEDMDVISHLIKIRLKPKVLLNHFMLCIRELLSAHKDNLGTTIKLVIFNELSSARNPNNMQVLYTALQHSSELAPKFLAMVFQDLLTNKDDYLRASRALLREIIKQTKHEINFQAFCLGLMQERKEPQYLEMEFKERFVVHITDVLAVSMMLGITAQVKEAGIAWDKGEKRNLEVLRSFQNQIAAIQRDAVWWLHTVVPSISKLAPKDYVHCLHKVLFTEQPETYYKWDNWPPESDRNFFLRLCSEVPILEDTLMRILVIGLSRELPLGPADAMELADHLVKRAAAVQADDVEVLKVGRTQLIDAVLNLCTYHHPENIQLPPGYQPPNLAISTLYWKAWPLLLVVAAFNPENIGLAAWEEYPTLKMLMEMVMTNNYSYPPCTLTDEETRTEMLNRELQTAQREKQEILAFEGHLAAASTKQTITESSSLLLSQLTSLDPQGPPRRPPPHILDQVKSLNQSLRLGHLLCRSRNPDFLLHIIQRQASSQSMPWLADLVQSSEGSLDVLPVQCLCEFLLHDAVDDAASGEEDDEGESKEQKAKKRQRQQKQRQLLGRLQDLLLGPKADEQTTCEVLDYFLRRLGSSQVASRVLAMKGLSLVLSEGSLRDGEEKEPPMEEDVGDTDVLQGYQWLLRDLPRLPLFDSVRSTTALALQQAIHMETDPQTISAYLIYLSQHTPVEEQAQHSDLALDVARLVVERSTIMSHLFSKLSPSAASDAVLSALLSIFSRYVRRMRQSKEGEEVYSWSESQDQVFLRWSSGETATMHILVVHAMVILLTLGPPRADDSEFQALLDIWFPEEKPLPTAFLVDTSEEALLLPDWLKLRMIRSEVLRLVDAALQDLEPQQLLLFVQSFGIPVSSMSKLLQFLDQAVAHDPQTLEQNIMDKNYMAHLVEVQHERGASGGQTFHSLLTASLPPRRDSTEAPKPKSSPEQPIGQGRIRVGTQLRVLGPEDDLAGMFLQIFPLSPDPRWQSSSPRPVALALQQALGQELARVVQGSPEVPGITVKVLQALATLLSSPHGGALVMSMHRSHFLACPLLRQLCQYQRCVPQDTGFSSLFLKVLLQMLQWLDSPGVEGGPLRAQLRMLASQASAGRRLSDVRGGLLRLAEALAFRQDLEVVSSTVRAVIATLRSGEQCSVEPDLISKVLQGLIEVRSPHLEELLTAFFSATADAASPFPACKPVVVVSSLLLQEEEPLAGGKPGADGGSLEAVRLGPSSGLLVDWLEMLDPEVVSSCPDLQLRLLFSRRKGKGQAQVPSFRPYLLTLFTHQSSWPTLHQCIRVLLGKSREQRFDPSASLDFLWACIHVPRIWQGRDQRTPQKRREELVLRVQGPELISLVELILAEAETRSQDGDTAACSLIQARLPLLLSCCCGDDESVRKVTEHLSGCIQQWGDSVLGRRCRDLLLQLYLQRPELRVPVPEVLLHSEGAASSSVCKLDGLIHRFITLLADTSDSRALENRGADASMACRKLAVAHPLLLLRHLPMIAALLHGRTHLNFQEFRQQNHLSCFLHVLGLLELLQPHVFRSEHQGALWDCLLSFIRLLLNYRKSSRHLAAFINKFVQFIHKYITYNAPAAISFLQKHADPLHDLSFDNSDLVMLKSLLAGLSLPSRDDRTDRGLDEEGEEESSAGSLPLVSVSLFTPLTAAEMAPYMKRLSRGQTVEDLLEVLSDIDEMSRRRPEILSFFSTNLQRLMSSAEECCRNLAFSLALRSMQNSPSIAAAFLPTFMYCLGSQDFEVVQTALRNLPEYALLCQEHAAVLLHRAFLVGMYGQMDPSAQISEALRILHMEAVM

T3 sequence (Q8N201 whole entry R1404A): as the sequence (Q8N201 whole entry R1404K) above, with K1404A counted along it
T2 sequence (Q8N201 whole entry): as the sequence (Q8N201 whole entry R1404K) above, with K1404R counted along it
T1 sequence (Q8N201 whole entry R1404L): as the sequence (Q8N201 whole entry R1404K) above, with K1404L counted along it

SMILES: N#Cc1c(NC(=O)CN2CCN(C(=O)CCCC[C@H]3SC[C@@H]4NC(=O)N[C@@H]43)CC2)sc2c1CCCC2 [CN-0928-biotin, N-(3-cyano-4,5,6,7-tetrahydrobenzo[b]thiophen-2-yl)-2-(4-(5-((3aS,4R,6aR)-2-oxohexahydro-1H-thieno[3,4-d]imidazol-4-yl)pentanoyl)piperazin-1-yl)acetamide]
- pulldown [1]: (R1404A, R1404L, and R1404K) prevented the binding of CN-0928-biotin to flag-labeled INTS1
- biotin probe pull-down on streptavidin beads, Western blot [2]: CN-0928-biotin pulldown of flag-tagged wild type (INTS1-WT-flag)
- pulldown [3]: (R1404A, R1404L, and R1404K) prevented the binding of CN-0928-biotin to flag-labeled INTS1
- pulldown (flag-tagged INTS1): (R1404A, R1404L, and R1404K) prevented the binding of CN-0928-biotin to flag-labeled INTS1
